For one data set, the target named is T1, CYP3A4 (Homo sapiens, UniProt P08684).
T1 construct: purchased Invitrogen (Vivid screening kits)
In words: CYP inhibition fluorescence assay (rhCYP450, Vivid Invitrogen kit). Format: in vitro ADME. The settings on record: recombinant human CYP3A4, 10 μM compound, read-out: % inhibition of CYP 3A4 at 10 μM. The procedure:
The % inhibition @ 10 μM data was generated from an rhCYP450/fluorescence assay according to the Vivid Invitrogen screening kits. The compounds were screened against CYP 3A4 isoform because CYP3A4 is responsible for the metabolism of approximately 50-60% of clinical drugs. The lower the percentage inhibition, the lower the CYP450 inhibitory liability of that specific compound.

The next data set has as its system MCF7 cell line. Briefly: Anti-proliferative assay (MTS/CCK-8), MCF7. Format: cell-based. The settings on record: Homo sapiens; MCF7 (breast cancer) cells, 100 ng/mL IGF without FCS, 72 hours; read-out: Anti-proliferation IC50 (μM) MCF7 cell line. The procedure: (§1) Anti-proliferative potential of compounds was tested using various cell lines (details provided in Table 2) by MTS (Promega, Cat # G1111), a tetrazolium compound ((3-(4,5-dimethylthiazol-2-yl)-5-(3-carboxymethoxyphenyl)-2-(4-sulphophenyl)-2H-tetrazolium, inner salt; MTS) and Cell Counting kit-8 (CCK-8 a Dojindo's highly water-soluble tetrazolium salt of WST-8 [2-(2-methoxy-4-nitrophenyl)-3-(4-nitrophenyl)-5-(2,4-disulfophenyl)-2H-tetrazolium, monosodium salt]). MTS is a colorimetric assay for determining the number of viable cells in proliferation, cytotoxicity or chemosensitivity assays. This is used with an electron coupling reagent PMS (Phenazine methosulfate). MTS is bioreduced by cells into a formazan that is soluble in tissue culture medium. The absorbance of the formazan at 490 nm can be measured directly from 96 well assay plates without additional processing. Dehydrogenase enzymes found in metabolically active cells accomplish the conversion of MTS into the aqueous soluble formazan. The quantity of formazan product is directly proportional to the number of living cells in culture. In CCK-8, WST-8 is reduced by dehydrogenases in cells to give a yellow colored product formazan, which is measured at 450 nm.
(§2) For experimental purposes, cells were seeded at a density of 3000-5000 cells per well in 180 μL/well volume in transparent 96 well tissue culture plate (NUNC, USA) and incubated overnight at 37° C., 5% CO2. […] Plates were incubated for 3-4 hours and absorbance was measured at 490 nm on Spectrophotometer (SpectraMax, Molecular Devices). Percentage cytotoxicity and IC50 was calculated using SoftMax software. […] After 4 hour incubation, the absorbance was determined at 450 nm using Spectrophotometer (SpectraMax, Molecular Devices). […]

The next data set deals with HT29 cell line. In words: Anti-proliferative assay (MTS/CCK-8), HT29. Format: cell-based. The settings on record: Homo sapiens, HT-29; HT29 (colon cancer) cells, 100 ng/mL IGF without FCS, 72 hours; read-out: Anti-proliferation IC50 (μM) HT29 cell line. As to the method:
as §1, §2

The target of another data set is T2, human IGF-1R (Homo sapiens, UniProt P08069).
T2 construct: IGFRK and IRK enzyme used for the assay was intracellular kinase domain of human IGF-1R and human IR; made in house
In words: In vitro IGF-1R kinase assay (HTRF). In kind it is biochemical. The settings on record: intracellular kinase domain GST fusion, ATP 20 μM, 1 hour at 23° C., read-out: IGFIR-Activity. As to the method:
The in vitro kinase assays using IGF-1R and IR kinase GST fusion proteins were conducted using a homogeneous time-resolved fluorescence (HTRF) format. […] The standard enzyme reaction buffer consisted of 50 mM Tris HCL (pH: 7.4), 1 mM EGTA, 10 mM MgCl2, 2 mM DTT, 0.01% Tween-20, IGF-1R/IR kinase enzyme, poly GT peptide substrate (Perkin Elmer [Ulight Glu-Tyr (4:1)]n) and ATP [concentration equivalent to Kmapp]. […] Briefly, 2.5 μL enzyme and 2.5 μL inhibitor was pre-incubated for 10 minutes at 23° C. followed by the addition of 2.5 μL of poly GT substrate (final concentration of 50 nM). Reaction was initiated with the addition of 2.5 μL of ATP (final concentration of 20 μM for IGF-1R assay and 10 μM for IR assay). After 1 hour incubation at 23° C., the kinase reaction was stopped with the addition of 5 μL EDTA (final concentration of 10 mM in 20 μL). Europium cryptate—labeled antiphosphotyrosine antibody PY20 (5 μL) was added (final concentration of 2 nM) and the mixture was allowed to equilibrate for 1 hour at 23° C. followed by reading the plate in an Envision plate reader. The intensity of light emission at 665 nm was directly proportional to the level of substrate phosphorylation. The IC50 values for inhibitors were determined by a four-parameter sigmoidal curve fit (Sigma plot or Graph pad).
IGFRK and IRK enzyme used for the assay was intracellular kinase domain of human IGF-1R and human IR cloned and expressed as GST fusion proteins using the baculovirus expression system and purified using glutathione—Sepharose column.

SMILES strings stand for the structures.

T2 sequence (P08069 999-1274 limits assumed): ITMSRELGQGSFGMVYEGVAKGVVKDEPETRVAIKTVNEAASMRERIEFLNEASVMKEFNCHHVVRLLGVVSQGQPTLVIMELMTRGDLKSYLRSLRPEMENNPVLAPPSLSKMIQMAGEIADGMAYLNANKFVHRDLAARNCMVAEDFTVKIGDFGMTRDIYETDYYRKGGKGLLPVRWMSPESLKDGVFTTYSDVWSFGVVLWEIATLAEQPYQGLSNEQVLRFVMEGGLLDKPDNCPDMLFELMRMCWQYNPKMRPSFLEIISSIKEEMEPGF
T1 sequence (P08684 whole entry): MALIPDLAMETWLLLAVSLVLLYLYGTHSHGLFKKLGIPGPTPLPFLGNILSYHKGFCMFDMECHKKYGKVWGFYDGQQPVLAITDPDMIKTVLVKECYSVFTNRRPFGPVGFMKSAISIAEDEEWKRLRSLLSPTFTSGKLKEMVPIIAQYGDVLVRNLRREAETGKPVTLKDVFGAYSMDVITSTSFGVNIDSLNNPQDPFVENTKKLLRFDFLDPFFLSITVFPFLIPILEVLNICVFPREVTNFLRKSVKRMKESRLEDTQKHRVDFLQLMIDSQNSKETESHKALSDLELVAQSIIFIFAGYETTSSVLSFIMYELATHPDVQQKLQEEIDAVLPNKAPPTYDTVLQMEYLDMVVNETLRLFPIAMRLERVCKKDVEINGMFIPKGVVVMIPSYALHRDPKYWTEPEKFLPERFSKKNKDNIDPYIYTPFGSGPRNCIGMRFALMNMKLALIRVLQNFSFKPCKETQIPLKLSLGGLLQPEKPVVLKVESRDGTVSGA

As for `CCOC(=O)N1CCC(Nc2cc(Cl)cc3c(S(=O)(=O)N4CCO[C@H](COc5ccccc5)C4)c(C(N)=O)[nH]c23)CC1` [Compound 34, (S)-ethyl 4-(2-carbamoyl-5-chloro-3-(2-(phenoxymethyl)morpholinosulfonyl)-1H-indol-7-ylamino)piperidine-1-carboxylate], the inhibition at 10 µM at CYP3A4 was 47%. For the same compound, the IC50 worked out at 0.9 µM in the data set with MCF7 cell line, 1.7 µM in the data set with HT29 cell line and 68.5 nM at human IGF-1R.

Turning to `N#CCCNc1cc(Cl)cc2c(S(=O)(=O)N3CCO[C@H](COc4ccccc4)C3)c(C(N)=O)[nH]c12` [Compound 19, (S)-5-chloro-7-(2-cyanoethylamino)-3-(2-(phenoxymethyl)morpholinosulfonyl)-1H-indole-2-carboxamide], the figures for the IC50 with MCF7 cell line, in the data set on HT29 cell line and on human IGF-1R were under 1 µM, 5.3 µM and 16 nM, respectively.

`NC(=O)c1[nH]c2c(NC3CCOCC3)cc(Cl)cc2c1S(=O)(=O)N1CCO[C@H](COc2ccccc2)C1` [Compound 20, (S)-5-chloro-3-(2-(phenoxymethyl)morpholinosulfonyl)-7-(tetrahydro-2H-pyran-4-ylamino)-1H-indole-2-carboxamide]: the results for the IC50 in the data set on MCF7 cell line, with HT29 cell line and at human IGF-1R were 0.8 µM, 2.8 µM and under 100 nM, respectively.

The values above are taken from patent publication US20140045832A1, “Insulin-Like Growth Factor-1 Receptor Inhibitors” (PIRAMAL ENTERPRISES LIMITED, priority 2011, published 2014).
